In general, Ki refers to a dissociation constant, usually derived from enzyme kinetics or from competition with a known ligand.

Like-named read-outs stand apart in the source and are kept apart here.

The target in this assay is HIV protease (Human immunodeficiency virus type 1 group M subtype B, UniProt P04585). Nature of the assay: Enzymatic (fluorometric FRET) assay for determining the inhibition constant (Ki). The class given is biochemical. The note with it: EDANS/DABCYL substrate, equation of Henderson. The text has this:
Enzymatic assay for determining the inhibition constant (Ki) of synthetic compounds targeting the HIV protease
This is a fluorometric assay based on the cleavage by protease of a substrate carrying a donor group (EDANS) and an acceptor group (DABCYL) on each side of the cleavage site, interacting together through fluorescence resonance energy transfer (FRET) as described by Matayoshi et al. (Science 247:[…], 1990).
After calculation of Vo and Vi, the inhibition constant (Ki) of the compound is determined using the equation of Henderson: (Vo)/(Vi) = 1 + ([I])/(Kiapp) Where Ki = (Kiapp)/((1 + [S])/(Km)) [formula] where Vo = the enzyme's initial velocity Vi = the enzyme velocity in the presence of the inhibitory compound, [I] = inhibitor concentration, [S] = substrate concentration, Km = Michaelis-Menten constant and Kiapp = apparent Ki
Graphs are traced and the Ki determined using GraphPad Prism software v. 3.0.

`Cc1ccc(S(=O)(=O)N(CC(C)C)C(CCCCNC(=N)NCc2ccccc2)C(=O)O)cc1` (racemic) [Example 30, Nα-isobutyl-Nα-(4-methylbenzenesulfonyl)-Nω-benzyl-DL-homoarginine]: the inhibitory constant (Ki) (read-out: Ki) was greater than 300 nM.
Under “Ki”, `Cc1ccc(S(=O)(=O)N(CC(C)C)[C@@H](CCCCNC(=O)NCCc2ccccc2)C(=O)O)cc1` [Example 1, Nα-isobutyl-Nα-(4-methylbenzenesulfonyl)-Nε-(2'-phenethylaminocarbonyl)-L-lysine] had a Ki of 204 nM.
Regarding `Cc1ccc(S(=O)(=O)N(CC(C)C)[C@@H](CCCCNC(=O)NCc2ccccn2)C(=O)O)cc1` [Example 3, Nα-isobutyl-Nα-(4-methylbenzenesulfonyl)-N∈-[N'-(2-picolyl)aminocarbonyl]-L-lysine], where the note is “read-out: Ki”, the Ki was greater than 300 nM.
Still for that read-out and setting: as for `Cc1ccc(S(=O)(=O)N(CC(C)C)[C@@H](CCCCNC(=O)NCCc2ccc(O)cc2)C(=O)O)cc1` [Example 5, Nα-isobutyl-Nα-(4-methylbenzenesulfonyl)-N∈-[2'-(4-hydroxyphenethyl)aminocarbonyl]-L-lysine], the figure is greater than 300 nM.
On the same count and under the same terms, as for `Cc1ccc(S(=O)(=O)N(CC(C)C)[C@@H](CCCCNC(=O)N(CC(C)C)C2CCCCC2)C(=O)O)cc1` [Example 7, Nα-isobutyl-Nα-(4-methylbenzenesulfonyl)-N∈-[(N'-cyclohexyl-N'-isobutyl)aminocarbonyl]-L-lysine], the figure is greater than 300 nM.
`Cc1ccc(S(=O)(=O)N(CC(C)C)[C@@H](CCCCNC(=O)N[C@@H](Cc2ccccc2)C(N)=O)C(=O)O)cc1` [Example 8, Nα-isobutyl-Nα-(4-methylbenzenesulfonyl)-N∈-[L-phenylalanylamide-N'a-carbonyl]-L-lysine]: the Ki (Ki) came to 60 nM.
The same measure, in the same setting: next, `Cc1ccc(S(=O)(=O)N(CC(C)C)[C@@H](CCCCNC(=O)N[C@H](Cc2ccccc2)C(N)=O)C(=O)O)cc1` [Example 9, Nα-isobutyl-Nα-(4-methylbenzenesulfonyl)-N∈-[D-phenylalanylamide-N'α-carbonyl]-L-lysine]: 131 nM; `Cc1ccc(S(=O)(=O)N(CC(C)C)[C@@H](CCCCNC(=O)NNC(=O)c2ccccc2O)C(=O)O)cc1` [Example 10, Nα-isobutyl-Nα-(4-methylbenzenesulfonyl)-N∈-[N2-(2-hydroxybenzoyl)-hydrazino-N1-carbonyl]-L-lysine]: 55 nM; `Cc1ccc(S(=O)(=O)N(CC(C)C)[C@@H](CCCCNC(=O)NNC(=O)c2ccncc2)C(=O)O)cc1` [Example 11, Nα-isobutyl-Nα-(4-methylbenzenesulfonyl)-N∈-[N2-(pyridine-4-carbonyl)-hydrazino-N1-carbonyl]-L-lysine]: greater than 300 nM.
As to `Cc1ccc(S(=O)(=O)N(CC(C)C)[C@@H](CCCCNC(=O)N[C@@H](Cc2ccccc2)C(=O)NCC(C)C)C(=O)O)cc1` [Example 12, Nα-isobutyl-Nα-(4-methylbenzenesulfonyl)-N∈-(L-phenylalanyl-N'-isobutylamide-N'α-carbonyl)-L-lysine], the Ki (Ki) is 47 nM.
On to `Cc1ccc(S(=O)(=O)N(CC(C)C)[C@@H](CCCCNC(=O)N[C@@H](Cc2ccccc2)C(=O)Nc2ccccc2)C(=O)O)cc1` [Example 13, Nα-isobutyl-Nα-(4-methylbenzenesulfonyl)-N∈-(L-phenylalanyl-N'-phenylamide-N'α-carbonyl)-L-lysine], for which affinity (Ki) was put at a Ki of 60 nM.
As for `Cc1ccc(S(=O)(=O)N(CC(C)C)C(CCCCNC(=S)NC2CCc3ccccc32)C(=O)O)cc1` [Example 14, (1S,TRS) Nα-isobutyl-Nα-(4-methylbenzenesulfonyl)-N∈-(indanyl-1'-aminothiocarbonyl)-S-lysine], the inhibitory constant (Ki) (read-out: Ki) is greater than 300 nM.
Consider `Cc1ccc(S(=O)(=O)N(CC(C)C)[C@@H](CCCCNC(=O)NCCN2CCCCC2)C(=O)O)cc1` [Example 17, Nα-isobutyl-Nα-(4-methylbenzenesulfonyl)-N∈-[2'-(1-pyperidinyl)ethylaminocarbonyl]-L-lysine], for which the inhibition constant (Ki) (read-out: Ki) was greater than 300 nM.
Where the note is “Ki”, `COC(=O)[C@H](CCCCNC(=O)NCCc1ccccn1)N(CC(C)C)S(=O)(=O)c1ccc(C)cc1` [Example 19, Nα-isobutyl-Nα-(4-methylbenzenesulfonyl)-N∈-[(2'-pyridyl)ethylaminocarbonyl]-L-lysine methyl ester] gave a Ki greater than 300 nM.
As to `Cc1ccc(S(=O)(=O)N(CC(C)C)[C@@H](CCCCNC(=O)Nc2nccc3ccccc23)C(=O)O)cc1` [Example 20, Nα-isobutyl-Nα-(4-methylbenzenesulfonyl)-N∈-(1'-isoquinolylaminocarbonyl)-L-lysine], the Ki (read-out: Ki) is greater than 300 nM.
The same measure, in the same setting: as for `Cc1ccc(S(=O)(=O)N(CC(C)C)[C@@H](CCCCNC(=O)N[C@@H]2c3ccccc3C[C@@H]2O)C(=O)O)cc1` [Example 22, (1S,1'R,2'S) Nα-isobutyl-Nα-(4-methylbenzenesulfonyl)-N∈-(cis-2'-hydroxyindanyl-1'-aminocarbonyl)-S-lysine], the figure is greater than 300 nM; as for `Cc1ccc(S(=O)(=O)N(CC(C)C)[C@@H](CCCCNC(=O)N[C@H]2c3ccccc3C[C@H]2O)C(=O)O)cc1` [Example 23, (1S,1'S,2'R) Nα-isobutyl-Nα-(4-methylbenzenesulfonyl)-N∈-(cis-2'-hydroxyindanyl-1'-aminocarbonyl)-S-lysine], greater than 300 nM; as for `Cc1ccc(S(=O)(=O)N(CC(C)C)[C@@H](CCCCNC(=O)N[C@H]2CCc3ccccc32)C(=O)O)cc1` [Example 25, (15,1'S) Nα-isobutyl-Nα-(4-methylbenzenesulfonyl)-N∈-(indanyl-1'-aminocarbonyl)-S-lysine], greater than 300 nM.
Turning to `Cc1ccc(S(=O)(=O)N(CC(C)C)[C@H](CCCCNC(=O)N[C@H]2CCc3ccccc32)C(=O)O)cc1` [Example 26, (1R,1'S) Nα-isobutyl-Nα-(4-methylbenzenesulfonyl)-N∈-(indanyl-1'-aminocarbonyl)-R-lysine], the inhibition constant (Ki) (read-out: Ki) is greater than 300 nM.
In turn, `Cc1ccc(S(=O)(=O)N(CC(C)C)[C@H](CCCCNC(=O)N[C@@H]2CCc3ccccc32)C(=O)O)cc1` [Example 27, (1R,1'R) Nα-isobutyl-Nα-(4-methylbenzenesulfonyl)-N∈-(indanyl-1'-aminocarbonyl)-R-lysine] showed a Ki greater than 300 nM.
Take `Cc1ccc(S(=O)(=O)N(CC(C)C)[C@@H](CCCCNC(=O)N(CCc2ccccc2)Cc2ccccc2)C(=O)O)cc1` [Example 31, Nα-isobutyl-Nα-(4-methylbenzenesulfonyl)-N∈-[(N'-benzyl-N'-phenethyl)aminocarbonyl]-L-lysine]: the Ki (read-out: Ki) is greater than 300 nM.
On the same count and under the same terms, next, `Cc1ccc(S(=O)(=O)N(CC(C)C)[C@@H](CCCCNC(=O)N(CC(C)C)CC(C)C)C(=O)O)cc1` [Example 35, Nα-isobutyl-Nα-(4-methylbenzenesulfonyl)-N∈-(N',N'-diisobutylaminocarbonyl)-L-lysine]: greater than 300 nM; `Cc1ccc(S(=O)(=O)N(CC(C)C)[C@H](CO)CCCCNC(=O)N(Cc2ccncc2)Cc2ccncc2)cc1` [Example 46, (2S) 2-N-isobutyl-2-N-(4-methylbenzenesulfonyl)-6-N-[N',N'-di-(4-picolyl)aminocarbonyl]-2,6-diaminohexanol]: greater than 300 nM.
The same measure, in the same setting: as for `CC(C)CN([C@H](CO)CCCCNC(=O)N(Cc1ccncc1)Cc1ccncc1)S(=O)(=O)c1ccc(N)cc1` [Example 51, (2S) 2-N-(4-aminobenzenesulfonyl)-2-N-isobutyl-6-N [N',N'-di-(4-picolyl)aminocarbonyl]-2,6-diaminohexanol], the figure is greater than 300 nM.
